For 4 compounds, HBsAg level, side effects and HBeAg level results are on record in patent publication US12508320B2, “Drug conjugate, pharmaceutical composition and method of treating hepatitis” (SeeCure Taiwan Co., Ltd., priority 2023, dated 2025).

In data set [1] the test system is HepG2 2.2.15 cells (a cell line that expresses the hepatitis B virus). In words: In vitro cell line evaluation: HBsAg/HBeAg levels in culture media of HepG2 2.2.15 cells (AXSYM system kit). It counts as cell-based. Also noted: HBsAg level: unit of the concentration uncertain. The following applies: 6-9 days of incubation. Here is the method: In the following experimental examples, when HepG2 2.2.15 cells (a cell line that expresses the hepatitis B virus) are used, the cells are maintained in Dulbecco's modified Eagle's medium (DMEM) (Gibco BRL, Grand Island, NY, USA) plus 10% fetal bovine serum (Hyclone, Logan, UT, USA), 100U/mL penicillin, […] streptomycin. HepG2.2.15 cells were seeded at the same density and used as a medium control. The experimental group is composed by administering the substance in the concentration specified by the manufacturer. All cultures were grown in humidified incubators at 37° C. and 5% CO2.
HepG2 2.2.15 cells were plated into 12-well microtiter plates. On day zero, the cells were washed several times with PBS and treated with tetracycline-free medium that contained either a test drug or a vehicle control group. Each test compound was screened at one concentration in triplicate. On day 3, day 6 and/or day 9, the medium was removed and replaced with fresh medium containing the compound. Twenty-four hours later, the medium was collected and clarified by centrifugation (Sorvall RT-6000D centrifuge, 1,000 rpm, 5 min). Media of HepG2 2.2.15 cells cultures were harvested at 3—, 6-, and 9-days post-HBV infection, and levels of hepatitis B surface antigen (HBsAg) and hepatitis B e antigen (HBeAg) in culture media were measured using an AXSYM system kit (Abbott Diagnostika).
In experimental example 1, five hepatitis treatment groups were prepared and added to HepG2 2.2.15 cells for evaluation. Group 1 is a control group containing only medium (PBS), whereby no drug compound is added. Group 2 is where a conventional drug Entecavir […] is used alone. Group 3 (CPD-0148) is directed to a compound of formula (IA2) […]. Group 4 (CPD-0150) is directed to a compound of formula (IA3) […]. Group 5 (CPD-0147) is directed to a compound of formula (IA4) […]. After 6-9 days of incubation with the above treatment groups, the levels of hepatitis B surface antigen (HBsAg) were measured using an AXSYM system kit (Abbott Diagnostika), and the results are shown in FIG. 10.
In experimental example 2, eight hepatitis treatment groups were prepared and added to HepG2 2.2.15 cells for evaluation. Group 1 is a control group containing only medium (PBS), whereby no drug compound is added. Group 2 is where a conventional drug Birinapant […] is used alone. Group 3 (CPD-0004) is directed to a compound of formula (IB1) […]. Group 4 (CPD-0030) is directed to a compound of formula (IB7) […]. Group 5 (CPD-0036) is directed to a compound of formula (IB2) […]. Group 6 (CPD-0133) is directed to a compound of formula (IB3) […]. Group 7 (CPD-0142) is directed to a compound of formula (IB4) […]. Group 8 (CPD-0186) is directed to a compound of formula (IB5) […]. After 6-9 days of incubation with the above treatment groups, the levels of hepatitis B surface antigen (HBsAg) were measured using an AXSYM system kit (Abbott Diagnostika), and the results are shown in FIG. 11.
In experimental example 3, thirteen hepatitis treatment groups were prepared and added to HepG2 2.2.15 cells for evaluation. Group 1 is a control group containing only medium (PBS), whereby no drug compound is added. Group 2 (Teno-Int) is where an intermediate of the conventional drug Tenofovir (100 mM; structure shown in first step of FIG. 3) is used alone. Group 3 (CPD-0134) is directed to a compound of formula (IC1) […]. Group 4 (CPD-0136) is directed to a compound of formula (IC2) […]. Group 5 (CPD-0137) is directed to a compound of formula (IC3) (510 mM). Group 6 (CPD-0138) is directed to a compound of formula (IC4) […]. Group 7 (CPD-0139) is directed to a compound of formula (IC5) […]. Group 8 (CPD-0143) is directed to a compound of formula (IC6) […]. Group 9 (CPD-0144) is directed to a compound of formula (IC7) […]. Group 10 (CPD-0149) is directed to a compound of formula (IC8) […]. Group 11 (CPD-0158) is directed to a compound of formula (IC9) […]. Group 12 (CPD-0169) is directed to a compound of formula (IC10) […]. […]

For data set [2] the following is noted: clinical studies, Birinapant used in combination with HBV drugs such as Tenofovir or Entecavir; cited from earlier work.
[3] abbreviates: Experimental example 6, HepG2 2.2.15 cells, 100 mM (each), FIG. 15.

Molecules are shown by their SMILES.

On to `CN[C@@H](C)C(=O)N[C@H](C(=O)N1CCC[C@H]1c1nc(C(=O)c2ccc(F)cc2)cs1)C1CCCCC1` [LCL161], for which the HBsAg level result in data set [1] (Experimental example 4, HepG2 2.2.15 cells, 500 (unit uncertain), FIG. 13) is “capable of reducing the HBsAg level as compared with the control”.

With `C[C@@H](O)Cn1cnc2c(N)ncnc21` [Teno-Int, (R)-1-(6-amino-9H-purin-9-yl)propan-2-ol], the HBsAg level entry in data set [1] (Experimental example 3, HepG2 2.2.15 cells, 100 mM (IC3: 510 mM), FIG. 12) is “slightly reduced as compared to the control”.

As for `CC[C@H](NC(=O)[C@H](C)NC)C(=O)N1C[C@@H](O)C[C@H]1Cc1c(-c2[nH]c3cc(F)ccc3c2C[C@@H]2C[C@H](O)CN2C(=O)[C@H](CC)NC(=O)[C@H](C)NC)[nH]c2cc(F)ccc12` [Birinapant], the HBsAg level entry in data set [1] (Experimental example 2, HepG2 2.2.15 cells, 500 (unit uncertain), FIG. 11) is listed as “capable of reducing the HBsAg level as compared with the control”. In addition, the side effects result in data set [2] was “cranial nerve palsies (or Bell's palsies)”.

With `C=C1[C@H](CO)[C@@H](O)C[C@@H]1n1cnc2c(=O)[nH]c(N)nc21` [Entecavir], the HBsAg level result in data set [1] (Experimental example 1, HepG2 2.2.15 cells, 100 (unit uncertain), FIG. 10) is listed as “capable of reducing the HBsAg level as compared with the control”. In addition, in data set [1] (setting [3]), the HBeAg level entry was “effective in reducing the HBsAg and HBeAg levels as compared with the control”; the HBsAg level entry is “effective in reducing the HBsAg and HBeAg levels as compared with the control”.
